Reference: patent US4497818A, “2-(1,4-Benzodioxan-2-ylalkyl)imidazoles useful as antihypertensives and platelet aggregation inhibitors” (Syntex (U.S.A.) Inc., priority 1981, dated 1985)
Where two headings read alike, the source gives them in different places. Blank lines part the entries; values can stand above or below the compound they belong to.

Columns and labels:
[1] = molecular target: T1, post-synaptic α-adrenoceptor (α1) (Rattus norvegicus, UniProt P43140); assay: Post-synaptic α-adrenoceptor blockade (epididymal portion of rat vas deferens, contractile effects of phenylephrine); type: cell-based; conditions: phenylephrine agonist, number of determinations in parentheses; for Kb: for 1-ethyl b174 = lot No. 1, b175 = lot No. 2, read-out: pA2 (α1) (converted)
T1 construct: from tissue; host or cells: rat isolated vas deferens, epididymal portion
T1 sequence (P43140 1-466): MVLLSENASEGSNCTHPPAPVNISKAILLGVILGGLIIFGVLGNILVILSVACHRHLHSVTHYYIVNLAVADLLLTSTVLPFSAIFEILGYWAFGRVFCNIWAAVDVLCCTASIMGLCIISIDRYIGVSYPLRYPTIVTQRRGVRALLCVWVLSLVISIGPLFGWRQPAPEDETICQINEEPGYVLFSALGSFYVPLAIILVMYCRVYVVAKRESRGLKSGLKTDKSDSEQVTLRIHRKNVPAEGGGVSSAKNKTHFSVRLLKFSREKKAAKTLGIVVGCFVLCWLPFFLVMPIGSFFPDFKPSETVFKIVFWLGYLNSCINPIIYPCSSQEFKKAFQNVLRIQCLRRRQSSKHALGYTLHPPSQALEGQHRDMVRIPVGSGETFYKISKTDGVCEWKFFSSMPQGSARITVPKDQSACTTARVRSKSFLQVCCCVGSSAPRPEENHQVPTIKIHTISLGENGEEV
From the text: The contralateral portions served as control tissues.
J. Pharmacol.; 14: 48-58 (1959).

[2] = LD50, intraperitoneal injection in mice; conditions: mouse, in vivo, ip, per body weight
[3] = system: blood platelets; assay: Platelet aggregation inhibition; type: cell-based; conditions: hydrochloride salt; for inhibition at 500 µM: at 5 × 10^-4 M, read-out: inhibition From Maximum Height (ΔT)
Description: Blood platelets are collected in the standard manner, and incubated in an Aggregation Module Incubator-Cuvette in the presence of either the inhibitor to be tested, or without said inhibitor as a control. The aggregation of the platelets is observed after the addition of an inducer, and the samples are evaluated for the presence of a lag period and the slope of the aggregation curve, as well as the maximum height of the aggregation curve in comparison to the control.

[4] = system: spontaneously hypertensive rats; assay: Antihypertensive activity in spontaneously hypertensive rats; type: in vivo, rat; conditions: 50 mg per kg orally on two consecutive mornings; hydrochloride salt; measured during four hours after second dose
Description: Spontaneously hypertensive rats were divided into groups of four animals each with approximately equal mean systolic blood pressures. One such group serves as a control against another group which is given the compound to be tested. On two consecutive mornings, the test group was dosed orally with 50 mg per kg of 1-ethyl-2-(1,4-benzodioxane-2-ylmethyl)imidazole as a hydrochloride salt which was suspended in a vehicle of water and tween. The control group received vehicle only. Immediately after dosing on the second day, the rats were put in restrainers and placed in a heated chamber at 30° C. for four hours.
During this time, systolic blood pressures were determined at four consecutive 20 second intervals using photoelectric transducers. The mean systolic blood pressure of each rat (as an average of these four measurements) was recorded. The results are given as percentage lowering of the mean systolic blood pressure in the experimental as compared with the control group.

Compound: CCn1ccnc1CC1COc2ccccc2O1 (stereo not drawn) [1-ethyl-2-(1,4-benzodioxan-2-ylmethyl)imidazole]
pA2 (α1) ([1]; for 1-ethyl b174 = lot No. 1, b175 = lot No. 2): 4.00
Kb [1]: 100 µM
LD50 [2]: 200 mg/kg

Compound: CCn1ccnc1CC1COc2ccccc2O1 (stereo not drawn) [1-ethyl-2-(1,4-benzodioxane-2-ylmethyl)imidazole]
inhibition at 1000 µM ([3]; inducer ADP (5 × 10^-6 M), at 10^-3 M, read-out: inhibition From Slope (Rate)): 20%
IC50 ([3]; inducer ADP (5 × 10^-6 M), read-out: IC50 From Maximum Height (ΔT)): 1000 µM
IC50 ([3]; inducer arachidonic acid (2.5 × 10^-4 M), read-out: IC50 From Maximum Height (ΔT)): 190 µM
IC50 ([3]; inducer arachidonic acid (2.5 × 10^-4 M), read-out: IC50 From Slope (Rate)): 310 µM
inhibition at 500 µM ([3]; inducer collagen (30&)): 27%
IC50 ([3]; inducer collagen (30&), read-out: IC50 From Slope (Rate)): 450 µM
inhibition at 50 µM ([3]; inducer epinephrine (5 × 10^-6 M), 5 × 10^-5 M, read-out: inhibition From Slope (Rate)): 99%
inhibition at 500 µM ([3]; inducer epinephrine (5 × 10^-6 M)): 5%
lowering of the mean systolic blood pressure compared with control group [4]: 29%

Kb [1]: 50.1 µM
Compound: Cn1ccnc1CC1COc2ccccc2O1 (stereo not drawn) [1-methyl-2-(1,4-benzodioxan-2-ylmethyl)imidazole]

Compound: CCCn1ccnc1CC1COc2ccccc2O1 (stereo not drawn) [1-propyl-2-(1,4-benzodioxan-2-ylmethyl)imidazole]
Kb [1]: 63.1 µM
LD50 [2]: 200 mg/kg

Compound: c1ccc2c(c1)OCC(Cc1ncc[nH]1)O2 (stereo not drawn) [2-(1,4-benzodioxan-2-ylmethyl)imidazole]
Kb [1]: 0.794 µM
LD50 [2]: 70 mg/kg

Kb [1]: 0.617 µM
Compound: c1ccc2c(c1)OCC(CCc1ncc[nH]1)O2 (stereo not drawn) [2-(2-(1,4-benzodioxan-2-yl)ethyl)imidazole]
